Test results from ChEMBL document CHEMBL5137025, “Tuberculosis Drug Discovery: Challenges and New Horizons” (J Med Chem, 2022).
In brackets after ≈: the same amount, converted by molar mass.

Tests used:
HepG2 [1] = assay: Cytotoxicity against human HepG2 cells; format: functional
[2] = system: Mycobacterium tuberculosis; format: functional, H37Rv; details: dose 100 mg/kg; time 8 weeks
[3] = Kinetic solubility of the compound; format: physicochemical; details: read-out: Kinetic_solubility
[4] = system: Mycobacterium tuberculosis; format: functional, H37Rv; details: dose 200 mg/kg; time 8 day
[5] = Cytotoxicity against African green monkey Vero cells assessed as reduction in cell viability by MTT assay; format: toxicity, cell-based; details: chlorocebus sabaeus
[6] = Kinetic aqueous solubility of the compound incubated for 4.5 hrs by LC-MS/MS analysis; format: physicochemical; details: buffer, read-out: Kinetic_solubility
[7] = Stability in mouse liver microsome assessed as half life by Reverse-phase HPLC analysis; format: ADME; details: liver microsomes
[8] = target: Voltage-gated inwardly rectifying potassium channel KCNH2 (Homo sapiens, UniProt Q12809)
Sequence of Voltage-gated inwardly rectifying potassium channel KCNH2 (Q12809 whole entry): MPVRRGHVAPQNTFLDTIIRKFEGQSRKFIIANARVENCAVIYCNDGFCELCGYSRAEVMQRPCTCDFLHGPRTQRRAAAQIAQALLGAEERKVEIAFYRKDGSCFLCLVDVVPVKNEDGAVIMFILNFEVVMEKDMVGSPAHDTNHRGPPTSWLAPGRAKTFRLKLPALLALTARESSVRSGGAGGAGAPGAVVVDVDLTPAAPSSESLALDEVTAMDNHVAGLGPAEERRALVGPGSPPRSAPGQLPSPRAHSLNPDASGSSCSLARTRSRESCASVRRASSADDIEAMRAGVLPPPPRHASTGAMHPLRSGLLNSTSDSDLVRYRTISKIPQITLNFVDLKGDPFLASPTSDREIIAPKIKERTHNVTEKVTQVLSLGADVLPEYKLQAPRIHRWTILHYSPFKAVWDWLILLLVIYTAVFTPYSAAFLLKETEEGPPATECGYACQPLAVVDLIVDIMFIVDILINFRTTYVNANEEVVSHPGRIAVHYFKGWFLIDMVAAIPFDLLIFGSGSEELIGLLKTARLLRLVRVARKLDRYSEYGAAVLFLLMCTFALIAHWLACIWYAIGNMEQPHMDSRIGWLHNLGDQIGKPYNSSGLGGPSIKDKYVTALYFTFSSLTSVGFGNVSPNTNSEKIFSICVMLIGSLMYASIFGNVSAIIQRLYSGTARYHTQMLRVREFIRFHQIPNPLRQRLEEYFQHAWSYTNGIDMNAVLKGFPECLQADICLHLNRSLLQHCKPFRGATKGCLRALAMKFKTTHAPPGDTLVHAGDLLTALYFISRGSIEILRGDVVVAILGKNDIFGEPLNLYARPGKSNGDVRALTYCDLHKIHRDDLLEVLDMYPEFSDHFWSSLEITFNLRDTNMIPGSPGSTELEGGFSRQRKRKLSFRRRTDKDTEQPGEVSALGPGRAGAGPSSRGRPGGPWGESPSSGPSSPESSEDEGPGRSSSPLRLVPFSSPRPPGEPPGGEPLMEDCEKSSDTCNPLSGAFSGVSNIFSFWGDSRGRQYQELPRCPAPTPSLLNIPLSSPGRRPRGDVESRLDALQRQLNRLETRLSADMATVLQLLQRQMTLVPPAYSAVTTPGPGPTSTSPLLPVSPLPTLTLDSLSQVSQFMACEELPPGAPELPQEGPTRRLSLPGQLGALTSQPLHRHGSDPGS

[9] = system: Mycobacterium tuberculosis; assay: microbe, parasite or virus in culture; details: H37Rv
Description: Antibacterial activity against Mycobacterium tuberculosis H37Rv assessed as inhibition of bacterial growth

[10] = system: Mycobacterium tuberculosis; format: functional, H37Rv; details: dose 200 mg/kg; route po; time 8 weeks
[11] = Half life in Swiss-Webster mouse at 200 mg/kg, po via gavage measured after 4 hrs; format: ADME, organism-based; details: in vivo
[12] = system: Mycobacterium tuberculosis; format: functional, H37Rv; details: dose 200 mg/kg; route po; time 2 weeks
in vitro = details: human, dermal fibroblasts
Description: Cytotoxicity against human dermal fibroblasts assessed as cell growth inhibition treated for 48 hrs by resazurin dye based assay

physchem = details: sodium phosphate buffer, pH 7.4
[13] = Half life in mouse; format: ADME, organism-based; details: in vivo
HepG2 [14] = assay: cells; details: Homo sapiens, HepG2, 40 h
Description: Cytotoxicity against human HepG2 cells treated for 40 hrs by Cell Titer Glo luminescence assay

[15] = system: Mycobacterium tuberculosis; format: functional, H37Rv; details: dose 400 mg/kg; route sc; time 3 weeks
[16] = system: Mycobacterium tuberculosis; format: functional; details: H37Rv, 336 h, time 14 day
[17] = system: Mycobacterium tuberculosis; format: functional, H37Rv; details: dose 40 mg/kg; route po; time 24 day
[18] = Inhibition of Mycobacterium tuberculosis ArgJ assessed as inhibition constant by measuring change in blue shift by ANS dye based displacement assay
[19] = system: Mycobacterium tuberculosis; assay: Antibacterial activity against Mycobacterium tuberculosis in chronic Mtb infection BALB/c mouse model assessed as reduction in log10 CFU in lungs at 100 mg/kg, po for 4 weeks; format: functional
[20] = Half life in BALB/c mouse at 100 mg/kg, po by LC/MS analysis; format: ADME, organism-based; details: in vivo
[21] = system: Mycobacterium tuberculosis; assay: Antibacterial activity against Mycobacterium tuberculosis in acute Mtb infection 129sv dehydropeptidase-1 KO mouse model assessed as reduction in log10 CFU administered orally twice daily for 6 days; format: functional; details: route po; time 6 day
[22] = system: Mycobacterium tuberculosis; format: functional, H37Rv; details: dose 50 mg/kg; route po; time 15 day
[23] = Inhibition of Mycobacterium tuberculosis Shikimate dehydrogenase expressed in Escherichia coli BL21 using shikimic acid as substrate incubated for 60 mins in presence of NADP+ by enzymatic assay
Cytochrome P450 1A2 = target: T1, Cytochrome P450 1A2 (Homo sapiens, UniProt P05177); assay: Inhibition of CYP1A2 in human liver microsome in presence of NADPH measured after 10 mins by LC/MS/MS analysis; format: microsomes
T1 sequence (P05177 whole entry): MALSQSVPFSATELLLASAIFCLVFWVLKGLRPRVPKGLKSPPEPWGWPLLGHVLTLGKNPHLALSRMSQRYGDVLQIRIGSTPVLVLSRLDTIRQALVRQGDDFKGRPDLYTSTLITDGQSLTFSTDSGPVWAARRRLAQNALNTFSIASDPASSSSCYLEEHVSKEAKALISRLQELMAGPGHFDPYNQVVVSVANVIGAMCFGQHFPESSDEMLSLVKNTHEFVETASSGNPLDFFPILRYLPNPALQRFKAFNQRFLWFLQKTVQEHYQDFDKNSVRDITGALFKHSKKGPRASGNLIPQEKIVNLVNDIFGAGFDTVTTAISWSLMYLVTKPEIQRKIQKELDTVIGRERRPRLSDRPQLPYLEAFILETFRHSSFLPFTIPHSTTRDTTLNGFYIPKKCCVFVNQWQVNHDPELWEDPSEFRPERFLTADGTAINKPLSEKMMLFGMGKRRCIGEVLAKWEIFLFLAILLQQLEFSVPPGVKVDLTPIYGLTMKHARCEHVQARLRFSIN

Cytochrome P450 2C9 = Cytochrome P450 2C9 (Homo sapiens, UniProt P11712); assay: Inhibition of CYP2C9 in human liver microsome in presence of NADPH measured after 10 mins by LC/MS/MS analysis; format: ADME, microsomes
Sequence of Cytochrome P450 2C9 (P11712 whole entry): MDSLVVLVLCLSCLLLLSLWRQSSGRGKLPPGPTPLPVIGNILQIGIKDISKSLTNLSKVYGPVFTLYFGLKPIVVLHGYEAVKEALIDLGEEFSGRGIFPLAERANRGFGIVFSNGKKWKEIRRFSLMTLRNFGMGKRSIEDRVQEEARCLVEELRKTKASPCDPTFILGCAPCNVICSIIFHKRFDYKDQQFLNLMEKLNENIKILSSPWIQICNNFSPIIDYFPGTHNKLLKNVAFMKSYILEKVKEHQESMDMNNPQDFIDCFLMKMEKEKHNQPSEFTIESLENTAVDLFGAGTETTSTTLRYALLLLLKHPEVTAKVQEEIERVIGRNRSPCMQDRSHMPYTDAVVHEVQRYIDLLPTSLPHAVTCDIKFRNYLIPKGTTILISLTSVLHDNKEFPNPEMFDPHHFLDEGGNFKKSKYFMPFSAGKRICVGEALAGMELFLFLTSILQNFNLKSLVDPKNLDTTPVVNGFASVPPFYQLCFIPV

Cytochrome P450 2C19 = Cytochrome P450 2C19 (Homo sapiens, UniProt P33261); assay: Inhibition of CYP2C19 in human liver microsome in presence of NADPH measured after 10 mins by LC/MS/MS analysis; format: ADME, microsomes
Sequence of Cytochrome P450 2C19 (P33261 whole entry): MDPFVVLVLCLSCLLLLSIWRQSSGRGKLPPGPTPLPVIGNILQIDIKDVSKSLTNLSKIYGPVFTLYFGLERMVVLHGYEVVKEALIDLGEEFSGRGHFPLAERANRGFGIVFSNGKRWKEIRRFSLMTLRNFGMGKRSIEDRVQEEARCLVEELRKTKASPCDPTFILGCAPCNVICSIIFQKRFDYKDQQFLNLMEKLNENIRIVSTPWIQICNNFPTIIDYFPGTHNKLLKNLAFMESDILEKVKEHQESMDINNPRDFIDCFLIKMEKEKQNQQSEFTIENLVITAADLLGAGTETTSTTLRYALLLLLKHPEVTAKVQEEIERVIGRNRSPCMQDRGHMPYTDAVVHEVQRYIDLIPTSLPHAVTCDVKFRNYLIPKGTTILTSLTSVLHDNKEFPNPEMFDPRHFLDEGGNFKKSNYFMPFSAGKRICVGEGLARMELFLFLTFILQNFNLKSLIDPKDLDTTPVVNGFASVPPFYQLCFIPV

[24] = Metabolic stability in human liver microsomes assessed as half life in presence of NADPH regenerating system measured for 5 to 60 mins by LC/MS/MS analysis; format: ADME, Microsome; details: time 5-60 min
[25] = Metabolic stability in mouse liver microsomes assessed as half life in presence of NADPH regenerating system measured for 5 to 60 mins by LC/MS/MS analysis; format: ADME, Microsome; details: time 5-60 min
[26] = Metabolic stability in rat liver microsomes assessed as half life in presence of NADPH regenerating system measured for 5 to 60 mins by LC/MS/MS analysis; format: ADME, Microsome; details: time 5-60 min
[27] = Half life in Sprague-Dawley rat at 5 mg/kg, po measured for 0.083 to 24 hrs by LC-MS/MS analysis; format: ADME, organism-based; details: in vivo, time 0.083-24 hrs
[28] = Oral bioavailability in Sprague-Dawley rat at 5 mg/kg measured for 0.083 to 24 hrs by LC-MS/MS analysis; format: ADME, organism-based; details: in vivo, time 0.083-24 hrs
[29] = system: Mycobacterium tuberculosis; assay: Antibacterial activity against Mycobacterium tuberculosis in acute Mtb infection BALB/c mouse model assessed as reduction in log10 CFU treated for 6 days; format: functional; details: time 6 day
[30] = system: Mycobacterium tuberculosis; format: functional, THP-1; details: H37Rv
[31] = system: Mycobacterium tuberculosis; format: functional, THP-1; details: H37Rv; remark: listed apart in the source
[32] = system: Mycobacterium tuberculosis; assay: Antibacterial activity against Mycobacterium tuberculosis in acute Mtb infection 129sv dehydropeptidase-1 KO mouse model assessed as reduction in log10 CFU administered subcutaneously twice daily for 6 days; format: functional; details: route sc; time 6 day
[33] = system: Mycobacterium tuberculosis; format: functional; details: H37Rv, 336 h, time 14 day; remark: listed apart in the source
[34] = system: Mycobacterium tuberculosis; assay: Antibacterial activity against Mycobacterium tuberculosis Erdman in acute Mtb infection BALB/c mouse model assessed as reduction in log10 CFU at 35 mg/kg, ip for 8 days; format: functional; details: time 8 day
[35] = system: Mycobacterium tuberculosis; assay: Antibacterial activity against Mycobacterium tuberculosis in acute Mtb infection 129sv dehydropeptidase-1 KO mouse model assessed as reduction in log10 CFU administered twice daily for 6 days in presence of clavulanate; format: functional; details: time 6 day

CCCCS(=O)(=O)Nc1ccc2cnn(C)c2c1 showed a CC50 (HepG2 [1]) greater than 100 µM, an Activity [2] of 2.4 log10CFU and a solubility kinetic [3] greater than 550 µM. It also gave an Activity [4] of 3.5 log10CFU, a CC50 [5] of 170 µM and a solubility kinetic at 4.5 h [6] of 175 µM (≈ 46.8 µg/mL). The half-life [7] was 10 min, the IC50 [8] was greater than 50 µM and the MIC [9] was 0.8 µM (≈ 0.214 µg/mL).
Work on CNC(=O)c1c(-c2ccc(O)cc2)oc2ccc(O)c(CN3CCCCC3)c12 yielded an Activity [10] of 1.9 log10CFU, a half-life [11] of 60 min and an Activity [12] of 0.9 log10CFU. It also gave a CC50 at 48 h (in vitro) greater than 100 µM, a solubility kinetic at 24 h (physchem) of 74 µM (≈ 28.2 µg/mL) and an MIC90 [9] of 0.13 µM (≈ 0.0495 µg/mL).
Compound CCNC(=N)NC(=O)Nc1c(CC)cccc1CC has a half-life [13] of 402 min and a CC50 (HepG2 [14]) greater than 30 µM.
With CSC1=C(C(=O)[O-])N2C(=O)[C@H]([C@@H](C)O)[C@H]2[C@H]1C.[Na+] the Activity [15] was less than 2 log10CFU and the MIC90 [16] was 0.9 µM.
O=C(Nc1cccc2c(=O)cc(-c3nnn[nH]3)oc12)c1ccc(OCCCCc2ccccc2)cc1 gave an Activity [17] of 0.5 log10CFU, a Ki [18] of 139 µM and an MIC90 [9] of 10 µM (≈ 4.82 µg/mL).
Nc1nc(N)c(N=O)c(OCC2CCCCC2)n1 showed an Activity [19] of 0.9 log10CFU and a half-life [20] of 60 min.
CO[C@H]1CCC[C@H]2C1=C(C(=O)OC(C)OC(=O)OC1CCCCC1)N1C(=O)[C@H]([C@@H](C)O)[C@@H]21 (stereo partly drawn) [SANFETRINEM CILEXETIL] showed an Activity [21] of 1.4 log10CFU.
Compound COc1ccc(OCc2nn3c(-c4ccc(Br)cc4)nnc3s2)cc1 has a CC50 (HepG2 [1]) of 50 µM, an Activity [22] of 1.7 log10CFU and an IC50 [23] of 29 µM. For the same compound, the IC50 (Cytochrome P450 1A2) was 560 nM, the IC50 (Cytochrome P450 2C9) was 560 nM and the IC50 (Cytochrome P450 2C19) was 560 nM. The half-life [24] was 1.1 min, the half-life [25] was 1.2 min and the half-life [26] was 17 min. The half-life [27] was 66 min, the bioavailability [28] was 14% and the MIC [9] was 4.8 µM (≈ 2 µg/mL).
With CO[C@H]1CCC[C@H]2C1=C(C(=O)[O-])N1C(=O)[C@H]([C@@H](C)O)[C@@H]21.[Na+] [SANFETRINEM SODIUM] the Activity [29] was 1.7 log10CFU, the MIC90 [30] was 5.6 µM and the MIC [31] was 5 µM. The Activity [32] was 1.7 log10CFU and the MIC [9] was 5 µM.
Cc1cc2oc(=O)cc(-c3cccc(N)c3)c2c(C)c1-c1ccc(CN2CCOCC2)cc1 gave an MIC99 [33] of 0.24 µM (≈ 0.106 µg/mL) and an Activity [34] of 2 log10CFU.
In the case of C[C@@H](O)[C@H]1C(=O)N2C(C(=O)O)=C(S[C@@H]3CN[C@H](C(=O)N(C)C)C3)[C@H](C)[C@H]12 [MEROPENEM], the half-life [13] is reported as 27.6 min, the MIC90 [33] is reported as 10 µM (≈ 3.83 µg/mL) and the Activity [15] is reported as less than 2 log10CFU. It also gave an Activity [35] of 1.7 log10CFU.
